# Results taken from paper PMC10248867, “Receptor-like cytoplasmic kinase ScRIPK in sugarcane regulates disease resistance and drought tolerance in Arabidopsis” (Frontiers in Plant Science, 2023).
# Legend:
# Assay in all cases: X-ray crystal structure, […] A
# Format in all cases: binding
# [1] = biological target: T1, ScRIPK-KD (ScRIPK kinase domain) (Saccharum hybrid cultivar, UniProt A0ACD6BAX3, S187A/T188A); details: crystallised in 0.1 M HEPES pH 7.5, 4.3 M sodium chloride, 291 K; active site
# T1 construct: gene NCGR_LOCUS634; kinase domain 72-378 of 425 aa; PRSF-duet vector, Ni-NTA purified from E. coli BL21(DE3); wild type autophosphorylated at T250, S253, T254; one kinase domain per asymmetric unit
# [2] = biological target: T2, ScRIPK-KD (ScRIPK kinase domain) (Saccharum hybrid cultivar, UniProt A0ACD6BAX3); details: Mg2+ bound; crystallised in 0.1 M HEPES pH 7.5, 40% v/v PEG 400, 291 K; active site
# T2 construct: gene NCGR_LOCUS634; kinase domain 72-378 of 425 aa; PRSF-duet vector, Ni-NTA purified from E. coli BL21(DE3); wild type autophosphorylated at T250, S253, T254; one kinase domain per asymmetric unit
# [3] = biological target: T3, ScRIPK-KD (ScRIPK kinase domain) (Saccharum hybrid cultivar, UniProt A0ACD6BAX3, K58R); details: crystallised in 0.1 M HEPES pH 7.5, 4.3 M sodium chloride, 291 K; active site
# T3 construct: gene NCGR_LOCUS634; kinase domain 72-378 of 425 aa; PRSF-duet vector, Ni-NTA purified from E. coli BL21(DE3); wild type autophosphorylated at T250, S253, T254; one kinase domain per asymmetric unit
# T3 sequence (A0ACD6BAX3 entry or part of it K58R): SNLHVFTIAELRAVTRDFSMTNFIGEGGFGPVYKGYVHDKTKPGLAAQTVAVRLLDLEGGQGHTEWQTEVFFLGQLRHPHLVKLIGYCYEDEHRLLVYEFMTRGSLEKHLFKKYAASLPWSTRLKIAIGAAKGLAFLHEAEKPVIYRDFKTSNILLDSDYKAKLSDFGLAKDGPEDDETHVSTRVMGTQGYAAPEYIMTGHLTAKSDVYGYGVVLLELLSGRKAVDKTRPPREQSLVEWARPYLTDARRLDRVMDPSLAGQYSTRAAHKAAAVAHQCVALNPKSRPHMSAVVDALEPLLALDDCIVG
# T1 sequence (A0ACD6BAX3 entry or part of it S187A/T188A): as the sequence (A0ACD6BAX3 entry or part of it K58R) above, with R53K, S182A, T183A counted along it
# T2 sequence (A0ACD6BAX3 entry or part of it): as the sequence (A0ACD6BAX3 entry or part of it K58R) above, with R53K counted along it
SMILES,"X-ray crystal structure, 1.95 A [1]","X-ray crystal structure, 2.10 A [2]","X-ray crystal structure, 1.68 A [3]"
Nc1ncnc2c1ncn2[C@@H]1O[C@H](COP(=O)(O)OP(=O)(O)O)[C@@H](O)[C@H]1O [ADP],"In the ScRIPK-KD S253A|T254A mutant structure, Y169 and E170–M172 formed a deep cavity",–,–
Nc1ncnc2c1ncn2[C@@H]1O[C@H](COP(=O)(O)OP(=O)(O)OP(=O)(O)O)[C@@H](O)[C@H]1O [ATP],–,The ScRIPK-ATP protein complex crystal was successfully obtained in the reservoir solution,the mutant protein ScRIPK-KD K124R was purified and crystallized with ATP
